Reference: patent publication US20260097111A1, “ETHER LIPIDS FOR HYPERACTIVATION OF MAMMALIAN DENDRITIC CELLS” (priority 2022, published 2026)

Tested on: human moDC
Experiment: IL-1β ELISA, human moDC treated with R848, DGP, MCC950
Assay type: cell-based
Description: Monocyte Isolation, Storage, and Differentiation into moDC. Human leukapheresis blood products were freshly obtained from AllCells via same day or overnight shipping at 4° C. Miltenyi StraightFrom Leukopak CD14 MicroBead isolation kits were used according to manufacturer instructions to isolate CD14+ monocytes. Briefly, leukopaks ranging in quantity from 5×10^9 to 1×10^10 total nucleated cells were evenly aliquoted into 50 mL conical tubes. Cells were incubated with CD14 microbeads and then loaded on the MultiMACS using the program “Possel2”. After washing out the negative population, CD14+ cells were eluted from the columns and counted. An aliquot of monocytes was used to stain for purity of cells to ensure that isolated live cells were […] CD11c+CD14+ by flow cytometry. […] Vials were placed in CoolCell freezing containers and placed in a −80° C. freezer and stored no longer than 1 week. Frozen cells were transferred for long-term storage to the vapor phase of a liquid nitrogen freezer until use.
To differentiate monocytes into moDC, vials of cells were taken out of the liquid nitrogen freezer and quickly thawed in a 37° C. water bath. Cells were diluted ten-fold in warmed R10++ media containing 50 units/mL benzonase. R10++ media was composed of RPMI 1640 media containing 10% fetal bovine serum, 50 units/mL penicillin, […] streptomycin, 2 mM L-glutamine, 1 mM sodium pyruvate, […] beta-mercaptoethanol, 10 mM HEPES, and 1% Gibco MEM non-essential amino acids. After gentle mixing by inversion of tubes, cells were incubated at 37° C. for 10 min. Cells were pelleted at 400×g for 5 min and supernatant was aspirated. Cells were resuspended in R10++ media and counted on the MoxiGo by diluting an aliquot in PBS containing a final concentration of 2.5 μg/mL propidium iodide. Cells were plated in T75 culture flasks at 3-6×10^7 cells per flask in a total of 20 mL R10++ media containing a final concentration of 50 ng/mL GM-CSF and 25 ng/mL IL-4. Three days after the start of culture, an additional 10 mL R10++ containing 50 ng/mL GM-CSF and 25 ng/mL IL-4 was added to each flask.
Six days after start of differentiation. R10++ media containing cells were placed into 50 mL conical tubes. Flasks were washed with an additional 10 mL PBS and also collected. […] Cells were resuspended in R10++ media and counted on the MoxiGo by diluting an aliquot in PBS containing a final concentration of 2.5 μg/mL propidium iodide. Cells were then adjusted to 1×10^6 cells/mL in R10++ media.
moDC Treatment. Human moDC were plated at 1×10^5 cells/well in 96-well flat-bottom tissue culture plates in R10++ media by adding 100 μL of cells per well. To each well, a 25 μL solution of R10++ containing 400 ng/mL GM-CSF and 200 ng/mL IL-4 was added.
Lyophilized R848 stocks were prepared as described above and frozen at −80° C. An aliquot of frozen R848 was thawed and further diluted to 11.4 μM in R10++ (4 μg/mL R848). Cell culture conditions receiving R848 treatment had 50 μL added to wells. For wells not receiving R848, 50 μL R10++ was added to wells. Lyophilized MCC950 was prepared as described above and stored at −20° C. MCC950 was further diluted to 40 uM in a prepared R10++ solution containing 11.4 μM R848. Cells receiving R848 and MCC950 treatment had 50 μL added to wells. Final concentrations of R848 and MCC950 in a total 200 μL volume were respectively 2.85 μM and 10 μM.
A4.44% solution of KP407 dissolved in sterile, distilled water was prepared at a temperature of 4° C. […]

`CCCCCCCCCCCCCCCCCCCCCCOC[C@@H](O)COP(=O)(O)O` [Compound 2, 1-docosyl-sn-glycerol-3-phosphate] was tested, and the “concentration of DGP sufficient in combination with R848 to significantly increase IL-1β secretion” value (donor HD94) was 20.6 µM, the “concentration of DGP sufficient in combination with R848 to significantly increase IL-1β secretion” value (donor HD95) was 82.5 µM and the “concentration of DGP sufficient in combination with R848 to significantly increase IL-1β secretion” value (donors HD93 and HD96) was “at least 41.3 uM”. For the same molecule, the IL-1β (without addition of R848, DGP 0-82.5 μM, overnight, FIG. 21) was “less than 100 μg/mL”.
